Results from patent publication US20260116921A1, “PEPTIDE INHIBITORS OF INTERLEUKIN-23 RECEPTOR AND THEIR USE TO TREAT INFLAMMATORY DISEASES” (priority 2018, published 2026).
Numbered stars: 1 amine (or outer) side, 2 acyl side, 3 side chain; on linkers, the order of the positions; unused ones are H or OH. Bridge positions count the residues as written; N and C are the ends. Square brackets hold non-standard residues; d marks the D form. Peptide text beside a SMILES is read from it. Trp(7-Et) = 7-ethyl-tryptophan, CCc1cccc2c(C[C@H](N[*:1])C(=O)[*:2])c[nH]c12; X2 = CCCc1cccc2c(C[C@H](N[*:1])C(=O)[*:2])c[nH]c12; His(π-Bom) = N[C@@H](Cc1cncn1COCc1ccccc1)C(=O)O; Trp(7-Me) = Cc1cccc2c(C[C@H](N)C(=O)O)c[nH]c12; Trp(1-Me) = Cn1cc(C[C@H](N)C(=O)O)c2ccccc21; 2Nal = N[C@@H](Cc1ccc2ccccc2c1)C(=O)O; AEF = NCCOc1ccc(C[C@H](N)C(=O)O)cc1; Cit = NC(=O)NCCC[C@H](N)C(=O)O; Pen = CC(C)(S)[C@H](N)C(=O)O; αMeK = C[C@](N)(CCCCN)C(=O)O; NMeA = CN[C@@H](C)C(=O)O; βAla = NCCC(=O)O

T1: IL-23R (Homo sapiens, UniProt Q5VWK5)
T1 sequence (Q5VWK5 24-629): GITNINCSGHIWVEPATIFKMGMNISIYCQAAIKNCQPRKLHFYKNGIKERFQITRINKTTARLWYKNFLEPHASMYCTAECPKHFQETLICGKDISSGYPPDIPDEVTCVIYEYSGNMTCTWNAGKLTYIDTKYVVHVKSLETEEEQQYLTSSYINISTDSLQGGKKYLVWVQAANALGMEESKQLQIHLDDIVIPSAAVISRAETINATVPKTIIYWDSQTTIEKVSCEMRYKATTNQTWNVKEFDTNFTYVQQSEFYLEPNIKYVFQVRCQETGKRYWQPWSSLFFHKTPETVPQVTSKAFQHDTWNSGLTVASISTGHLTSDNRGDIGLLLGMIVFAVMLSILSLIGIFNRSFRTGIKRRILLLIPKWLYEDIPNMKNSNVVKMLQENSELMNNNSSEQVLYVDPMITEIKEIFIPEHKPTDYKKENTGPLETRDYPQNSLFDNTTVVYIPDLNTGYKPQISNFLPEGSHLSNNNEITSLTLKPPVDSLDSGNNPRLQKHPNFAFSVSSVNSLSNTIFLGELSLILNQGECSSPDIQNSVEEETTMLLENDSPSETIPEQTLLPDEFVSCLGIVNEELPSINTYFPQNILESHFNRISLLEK

T2: IL-23R (human, UniProt Q5VWK5 24-629)
T2 sequence (looked up): T1 sequence (Q5VWK5 24-629)

B1: SEQ ID NO: 274 (peptide)
peptide: XNTXQXXXXKNX
modifications: Ac-[Pen]-N-T-[W(7-Me)]-Q-[Pen]-Phe[4-(2-aminoethoxy)]-[2-Nal]-[Achc]-[Lys(Ac)]-N-[bA]-NH2; Pen-Pen disulfide
B2: SEQ ID NO: 265 (peptide)
peptide: Ac-[Pen]NT[Trp(7-Me)][Cit][Pen][AEF][2Nal][αMeK]K(Ac)N[NMeA]-NH2
modifications: disulfide 1-6; not fully specified; printed as Ac-[Pen]-NT-[W(7-Me)]-[Cit]-[Pen]-Phe[4-(2-aminoethoxy)]-[2-Nal]-[a-MeLys]-[Lys(Ac)]-[N-MeAla]-NH2
B3: SEQ ID NO: 277 (peptide)
peptide: XNTXQXXXXKNX
modifications: Ac-[Pen]-N-T-[W(7-Me)]-Q-[Pen]-Phe[4-(2-aminoethoxy)]-[2-Nal]-[Acbc]-[Lys(Ac)]-N-[bA]-NH2; Pen-Pen disulfide
B4: SEQ ID NO: 249 (peptide)
peptide: XNTXKXXXXKNX
modifications: Ac-[Pen]-NT-[W(7-Me)]-[Lys(Ac)]-[Pen]-Phe[4-(2-aminoethoxy)]-[2-Nal]-[a-MeLys]-[Lys(Ac)]-N-[Cit]-NH2; Pen-Pen disulfide
B5: SEQ ID NO: 276 (peptide)
peptide: XNTXQXXXXKNX
modifications: Ac-[Pen]-N-T-[W(7-Me)]-Q-[Pen]-Phe[4-(2-aminoethoxy)]-[2-Nal]-[DiethylGly]-[Lys(Ac)]-N-[bA]-NH2; Pen-Pen disulfide

Columns and labels:
[1] = in vitro; settings: human, 20% fecal homogenate (supernatant), anaerobic, pH 6.8
Procedure: Fecal homogenate (20%) was prepared by adding 4 mL of growth medium (1 liter contains 2 g peptone water powder, 2 g yeast extract, 0.1 g NaCl, 0.04 g KH2PO4, 0.01 g CaCl2·6H2O, 0.01 g MgSO4·7H2O, 2 mL Tween 80, 0.5 g bile salts, 0.5 g L-cysteine HCl, 2 g NaHCO3, and 10 μL Vitamin K, pH adjusted to 6.8, and sterilized by filtration through a 0.22 μm filter) to every gram of feces (pooled freshly collected human or cynomolgus monkey feces). The suspension was vortexed to break up large clumps, and homogenized using a bead mill homogenizer. Centrifuged the homogenate at 2800×g for 15 min. The supernatant is taken out and used for incubations. DMSO stocks (10 mM) were first prepared for the test compounds. Incubations were performed in an anaerobic chamber conditioned at 37° C. Aliquots of the DMSO solutions were dosed into 1.0 mL aliquots of 20% fecal homogenate, which are pre-warmed to 37° C. The final test compound concentration was 20 μM. At each timepoint (0, 20 min, 1, 3, 6, or 24 hours), 100 μL aliquot of each incubation mixture is taken out and added to separate tubes containing 300 μL of 50% acetonitrile/50% methanol and an internal standard to terminate the reaction. Samples were taken out of the anaerobic chamber and stored at 4° C. until the end of the experiment. After the final timepoint is sampled, the tubes were mixed and then centrifuged at 3,000 rpm for 10 minutes. Aliquots of the supernatant were removed, diluted 1:1 into distilled water containing 0.1% formic acid, and analyzed by LC/MS/MS. Percent remaining at each timepoint was calculated based on the peak area response ratio of test to compound to internal standard. Time 0 was set to 100%, and all later timepoints were calculated relative to time 0. Half-lives were calculated by fitting to a first-order exponential decay equation using Graphpad or Excel.

[2] = in vitro; settings: both, SD, rat, plasma (EDTA)
Procedure: Peptides of interest (20 μM) were incubated with pre-warmed rat plasma (SD rat, mixed gender pooled, EDTA, filtered through 0.22 μm, BioreclamationIVT) at 37° C. […] Quenched samples were stored at 4° C. until the end of the experiment and centrifuged at 4,000 rpm for 10 minutes. The supernatant were diluted 1:1 with deionized water and analyzed using LC-MS. Percentage remaining at each time point was calculated based on the peak area ratio (analyte over internal standard) relative to the initial level at time zero. Half-lives were calculated by fitting to a first-order exponential decay equation using GraphPad.

[3] = in vitro; settings: cynomolgus monkey, 20% fecal homogenate (supernatant), anaerobic, pH 6.8
[4] = in vitro; format: in vitro ADME; set-up: half-life: dose or concentration left out as unconfirmed; settings: simulated intestinal fluid (SIF) with pancreatin, pH 6.8, 37° C., § matrix is 100 fold dilution of standard SIF concentration, read-out: SIF t½ (converted)
[5] = molecular target: T1, IL-23R; assay: DB cells IL23R pSTAT3 cell assay (pStat3 HTRF); format: cell-based; settings: Table E3; DB cells, IL-23 0.5 nM, 30 minutes at 37° C.; read-out: pStat3 HTRF (IC50)
Summary of the method: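 DB cells (5×10E5/well, RPMI-1640 + 10% FBS) stimulated with 0.5 nM final IL-23 plus serially diluted test peptides for 30 min at 37 °C, 5% CO2. Phospho-STAT3 (Tyr705) in lysates measured by HTRF using a two-plate protocol.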

[6] = molecular target: T2, IL-23R; assay: cell-based or functional assay

Row | Molecule | half-life at 20 μM [1] | half-life at 20 μM [2] | half-life at 20 μM [3] | half-life [4] | IC50 [5] | pStat3 HTRF (nM) IC50 [6]
1 | CC(=O)NCCCC[C@H](NC(=O)[C@](C)(CCCCN)NC(=O)[C@H](Cc1ccc2ccccc2c1)NC(=O)[C@H](Cc1ccc(OCCN)cc1)NC(=O)[C@H]1NC(=O)[C@H](CCCNC(N)=O)NC(=O)[C@H](Cc2c[nH]c3c(C)cccc23)NC(=O)[C@H]([C@@H](C)O)NC(=O)[C@H](CC(N)=O)NC(=O)[C@@H](NC(C)=O)C(C)(C)SSC1(C)C)C(=O)NCCC(=O)NCCC(N)=O [compound 268] (Ac-[Pen]NT[Trp(7-Me)][Cit][Pen][AEF][2Nal][αMeK]K(Ac)[βAla][βAla]-NH2; disulfide 1-6) | > 24 h | > 24 h | > 24 h | 15 h | 1 to 10 nM | –
2 | CC(=O)NCCCC[C@@H]1NC(=O)[C@H](Cc2c[nH]c3c(C)cccc23)NC(=O)[C@H]([C@@H](C)O)NC(=O)[C@H](CC(N)=O)NC(=O)[C@@H](NC(C)=O)C(C)(C)SSC(C)(C)[C@@H](C(=O)N[C@@H](Cc2ccc(OCCN)cc2)C(=O)N[C@@H](Cc2ccc3ccccc3c2)C(=O)N[C@@](C)(CCCCN)C(=O)N[C@@H](CCCCNC(C)=O)C(=O)N[C@@H](CC(N)=O)C(=O)N2CCC[C@H]2C(N)=O)NC1=O [compound 253] | 1 h | > 24 h | 3 h | 11 h | 1 to 10 nM | –
3 | CCCc1cccc2c(C[C@@H]3NC(=O)[C@H]([C@@H](C)O)NC(=O)[C@H](CC(N)=O)NC(=O)[C@@H](NC(C)=O)C(C)(C)SSC(C)(C)[C@@H](C(=O)N[C@@H](Cc4ccc(OCCN)cc4)C(=O)N[C@@H](Cc4ccc5ccccc5c4)C(=O)N[C@@](C)(CCCCN)C(=O)N[C@@H](CCCCNC(C)=O)C(=O)N[C@@H](CC(N)=O)C(=O)N[C@H](CC(C)C)C(N)=O)NC(=O)[C@H](CCCCNC(C)=O)NC3=O)c[nH]c12 [compound 285] (Ac-[Pen]NT[X2]K(Ac)[Pen][AEF][2Nal][αMeK]K(Ac)N[dL]-NH2; disulfide 1-6) | > 24 h | > 24 h | > 24 h | 9 h | < 1 nM | –
4 | CC(=O)NCCCC[C@H](NC(=O)[C@](C)(CCCCN)NC(=O)[C@H](Cc1ccc2ccccc2c1)NC(=O)[C@H](Cc1ccc(OCCN)cc1)NC(=O)[C@H]1NC(=O)[C@H](CCCNC(N)=O)NC(=O)[C@H](Cc2c[nH]c3c(C)cccc23)NC(=O)[C@H]([C@@H](C)O)NC(=O)[C@H](CC(N)=O)NC(=O)[C@@H](NC(C)=O)C(C)(C)SSC1(C)C)C(=O)N[C@@H](CC(N)=O)C(=O)N[C@H](CO)C(N)=O [compound 261] (Ac-[Pen]NT[Trp(7-Me)][Cit][Pen][AEF][2Nal][αMeK]K(Ac)N[dS]-NH2; disulfide 1-6) | > 24 h | > 24 h | 4 h | 18 h | < 1 nM | –
5 | CC[C@H](C)[C@H](NC(=O)[C@H](CC(N)=O)NC(=O)[C@H](CCCCNC(C)=O)NC(=O)[C@](C)(CCCCN)NC(=O)[C@H](Cc1ccc2ccccc2c1)NC(=O)[C@H](Cc1ccc(OCCN)cc1)NC(=O)[C@H]1NC(=O)[C@H](CCCCNC(C)=O)NC(=O)[C@H](Cc2c[nH]c3c(C)cccc23)NC(=O)[C@H]([C@@H](C)O)NC(=O)[C@H](CC(N)=O)NC(=O)[C@@H](NC(C)=O)C(C)(C)SSC1(C)C)C(N)=O [compound 255] | > 24 h | > 24 h | 15 h | 19 h | 1 to 10 nM | –
6 | CC(=O)NCCCC[C@H](NC(=O)[C@](C)(CCCCN)NC(=O)[C@H](Cc1ccc2ccccc2c1)NC(=O)[C@H](Cc1ccc(OCCN)cc1)NC(=O)[C@H]1NC(=O)[C@H](CCCNC(N)=O)NC(=O)[C@H](Cc2c[nH]c3c(C)cccc23)NC(=O)[C@H]([C@@H](C)O)NC(=O)[C@H](CC(N)=O)NC(=O)[C@@H](NC(C)=O)C(C)(C)SSC1(C)C)C(=O)N[C@@H](CC(N)=O)C(=O)N[C@@H](C(N)=O)[C@H](C)O [compound 263] (Ac-[Pen]NT[Trp(7-Me)][Cit][Pen][AEF][2Nal][αMeK]K(Ac)N[dT]-NH2; disulfide 1-6) | > 24 h | > 24 h | 9 h | 14 h | < 1 nM | –
7 | CC(=O)N[C@@H]1C(=O)N[C@@H](CC(N)=O)C(=O)N[C@@H]([C@@H](C)O)C(=O)N[C@@H](Cc2c[nH]c3c(C)cccc23)C(=O)N[C@@H](CCC(N)=O)C(=O)N[C@H](C(=O)N[C@@H](Cc2ccc(OCCN)cc2)C(=O)N[C@@H](Cc2ccc3ccccc3c2)C(=O)N[C@@](C)(CCCCN)C(=O)N[C@@H](CCCNC(N)=O)C(=O)NCCC(=O)NCCC(N)=O)C(C)(C)SSC1(C)C [compound 279] | > 24 h | > 24 h | > 24 h | 7 h | 1 to 10 nM | –
8 | CC(=O)NCCCC[C@H](NC(=O)[C@](C)(CCCCN)NC(=O)[C@H](Cc1ccc2ccccc2c1)NC(=O)[C@H](Cc1ccc(OCCN)cc1)NC(=O)[C@H]1NC(=O)[C@H](CCCNC(N)=O)NC(=O)[C@H](Cc2cn(C)c3ccccc23)NC(=O)[C@H]([C@@H](C)O)NC(=O)[C@H](CC(N)=O)NC(=O)[C@@H](NC(C)=O)C(C)(C)SSC1(C)C)C(=O)NCCC(=O)NCCC(N)=O [compound 280] (Ac-[Pen]NT[Trp(1-Me)][Cit][Pen][AEF][2Nal][αMeK]K(Ac)[βAla][βAla]-NH2; disulfide 1-6) | > 24 h | > 24 h | > 24 h | 8 h | 10 to 100 nM | –
9 | B1 | – | – | – | – | – | < 1 nM
10 | Ac-[Pen]NT[Trp(7-Me)][Cit][Pen][AEF][2Nal][αMeK]K(Ac)NS-NH2 (disulfide 1-6 (inferred)) [SEQ ID NO: 260] | – | – | – | – | – | < 1 nM
11 | Ac-[Pen]NT[Trp(7-Et)]K(Ac)[Pen][AEF][2Nal][αMeK]K(Ac)N[dL]-NH2 (disulfide 1-6 (inferred)) [SEQ ID NO: 284] | – | – | – | – | – | < 1 nM
12 | Ac-[Pen]NT[Trp(7-Me)][Cit][Pen][AEF][2Nal][αMeK]K(Ac)N[dT]-NH2 (disulfide 1-6 (inferred)) [SEQ ID NO: 263] | – | – | – | – | – | < 1 nM
13 | B2 | – | – | – | – | – | < 1 nM
14 | Ac-[Pen]NT[Trp(2,5,7-tritBu)]Q[Pen][AEF][2Nal][αMeK]K(Ac)N[βAla]-NH2 (disulfide 1-6) [SEQ ID NO: 233] | – | – | – | – | – | > 100 nM
15 | B3 | – | – | – | – | – | < 1 nM
16 | Ac-[Pen]NT[Trp(7-Me)]K(Ac)[Pen][His(π-Bom)][2Nal][αMeK]K(Ac)N[dL]-NH2 (disulfide 1-6) [SEQ ID NO: 291] | – | – | – | – | – | > 100 nM
17 | B4 | – | – | – | – | – | < 1 nM
18 | B5 | – | – | – | – | – | < 1 nM
19 | Ac-[Pen]NT[Trp(7-Me)][Cit][Pen][AEF][2Nal][αMeK]K(Ac)N[dR]-NH2 (disulfide 1-6 (inferred)) [SEQ ID NO: 256] | – | – | – | – | – | < 1 nM
